In PubChem BioAssay AID1963856 (Molecular Pharmacology Branch, DTP, NCI, 2024):

Tested on: LG0567-F671-PDC KRAS tumor spheroid viability
Test: Anticancer human tumor LG0567-F671-PDC patient-derived lung adenocarcinoma cell line growth inhibition [KRAS2]
Settings: spheroids with HUVEC and MSC; for IC50: curve of first compound; for viability, T/C: stronger effect = lower value
Excerpt: Multicellular complex tumor spheroid response to RAS pathway inhibitors in combination with a targeted agents in patient-derived cell lines with oncogenic KRAS variants from multiple cancer types
A high-throughput screen of multi-cell type tumor spheroids was designed to identify active combinations of targeted small molecules and KRAS pathway inhibitors. Complex spheroids include a stromal component modeled by human endothelial cells (HUVEC) and fibroblasts modeled by human mesenchymal stem cells (MSCs). The concentration ranges selected for each drug and investigational agent were based upon clinically achievable concentrations if the clinical Cmax of the agent was known.
Compounds. The drugs and investigational agents: BI-3406 (NSC825286), BAY-293 (NSC824723), batoprotafib (TNO155; NSC825523), sotorasib (AMG 510; NSC818433), MRTX1257 (NSC819558), elimusertib (BAY 1895344; NSC800525), molibresib (GSK525762; NSC774829), temuterkib (LY3214996; NSC803410), venetoclax (NSC766270), alisertib (NSC759677), olaparib (NSC753686), talazoparib (NSC767125), erdafitinib (NSC781556), ipatasertib (NSC767898), cabozantinib (NSC761068), nintedanib (NSC756659), abemaciclib (NSC768073), docetaxel (NSC628503), trametinib (NSC758246), and sapanisertib (NSC764658) were obtained from the National Cancer Institute (NCI) Developmental Therapeutics Program Chemical Repository. The FDA-approved anticancer drug set is available from the Developmental Therapeutics Program. […] The stock solutions were prepared in dimethyl sulfoxide (DMSO, Sigma-Aldrich, St. Louis, MO, cat. D2650) at 800-fold the tested concentration and stored at -70 degrees C prior to their use. All drugs and investigational agents were tested over a range starting from a high concentration at or near the clinical Cmax and decreasing in half-log increments. If the clinical Cmax for an agent had not been determined, the highest concentration tested was 10 microM.
Cell Culture. All cells were maintained in an incubator at 37 degrees C and 5% CO2 with 95% humidity. The PDC lines were cultured according to standard operating procedures established by the NCI PDMR (https://pdmr.cancer.gov/sops/default.htm). Briefly, all PDCs were thawed and cultured in Matrigel-coated flasks prepared with a working solution of 1X Ham's F-12 nutrient mix, without supplementation (Invitrogen, Waltham, MA, cat. 11765054), 100 U/mL penicillin-streptomycin (Invitrogen, cat. 15140122), and 2.5% Matrigel (Corning Inc., Corning, NY, cat. 354248) for the first three passages. All PDCs were cultured in complete DMEM/F-12 media containing advanced DMEM/F-12 (Invitrogen, cat. 12634028), 4.9% defined fetal bovine serum, heat inactivated (HyClone Laboratories Inc., Logan, UT, cat. SH30070.03HI), 389 ng/mL hydrocortisone (Sigma-Aldrich, cat. H4001), 9.7 ng/mL human EGF recombinant protein (Invitrogen, cat. PHG0313), 23.4 microg/mL adenine (Sigma-Aldrich, cat. A2786), 97.3 U/mL penicillin-streptomycin (Invitrogen, cat. 15140122), 1.9 mM L-glutamine (Invitrogen, cat. 25030081), and 9.7 microM Y-27632 dihydrochloride (Tocris Bioscience, Bristol, United Kingdom, cat. 1254). The PDCs were cultured in complete DMEM/F12 media without 9.7 microM Y-27632 dihydrochloride for at least two passages prior to the screen. The established cell line HOP-62 was cultured in RPMI 1640 medium, HEPES (Invitrogen, cat. 22400105) with 10% defined fetal bovine serum (HyClone Laboratories Inc., cat. SH30070.03) and 2 mM L-glutamine (Invitrogen, cat. 25030081). The pooled donor HUVEC were cultured in endothelial cell growth medium 2 (PromoCell, Heidelberg, Germany, cat. C-22011) and the hMSC were cultured in mesenchymal stem cell growth medium 2 (PromoCell, cat. C-28009). For all experiments, HUVEC and hMSC were used at passages </=5, while the malignant cell lines were used at passages </=15. […]

[1] = second compound 0.1 µM, first compound 0.01 µM
[2] = second compound 0.1 µM, first compound 0.0316 µM
[3] = second compound 0.316 µM, first compound 0.01 µM
[4] = second compound 0.316 µM, first compound 0.0316 µM
[5] = second compound 1 µM, first compound 0.01 µM
[6] = second compound 1 µM, first compound 0.0316 µM
[7] = second compound 3.16 µM, first compound 0.01 µM
[8] = second compound 3.16 µM, first compound 0.0316 µM
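Further: drug exposure lasted seven days after spheroids formed for three days.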
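Wherever viability, T/C is given: 100% = DMSO vehicle control viability.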

Question: Which results are given for `CC(=O)Nc1cccc(-n2c(=O)n(C3CC3)c(=O)c3c(Nc4ccc(I)cc4F)n(C)c(=O)c(C)c32)c1` + C=CC(=O)N1CCN(c2nc(OCC3CCCN3C)nc3c2CCN(c2cccc4cccc(C)c24)C3)CC1CC#N?
Answer: IC50 (second compound 0.0316 µM): < 0.1 nM; IC50 (second compound 0.1 µM): < 0.1 nM; IC50 (second compound 0.316 µM): < 0.1 nM; IC50 (second compound 1 µM): < 0.1 nM; IC50 (second compound 3.16 µM): < 0.1 nM; viability, T/C (second compound 0.0316 µM, first compound 0.0001 µM): 36.6%; viability, T/C (second compound 0.0316 µM, first compound 0.000316 µM): 35.6%; viability, T/C (second compound 0.0316 µM, first compound 0.001 µM): 34.5%; viability, T/C (second compound 0.0316 µM, first compound 0.00316 µM): 42%; viability, T/C (second compound 0.0316 µM, first compound 0.01 µM): 24.2%; viability, T/C (second compound 0.0316 µM, first compound 0.0316 µM): 7.65%; viability, T/C (second compound 0.1 µM, first compound 0.0001 µM): 23.8%; viability, T/C (second compound 0.1 µM, first compound 0.000316 µM): 32.3%; viability, T/C (second compound 0.1 µM, first compound 0.001 µM): 56.4%; viability, T/C (second compound 0.1 µM, first compound 0.00316 µM): 24.6%; viability, T/C [1]: 12.1%; viability, T/C [2]: 4.09%; viability, T/C (second compound 0.316 µM, first compound 0.0001 µM): 30%; viability, T/C (second compound 0.316 µM, first compound 0.000316 µM): 33.2%; viability, T/C (second compound 0.316 µM, first compound 0.001 µM): 39.7%; viability, T/C (second compound 0.316 µM, first compound 0.00316 µM): 22.1%; viability, T/C [3]: 19.3%; viability, T/C [4]: 5.95%; viability, T/C (second compound 1 µM, first compound 0.0001 µM): 38.2%; viability, T/C (second compound 1 µM, first compound 0.000316 µM): 37.5%; viability, T/C (second compound 1 µM, first compound 0.001 µM): 23.7%; viability, T/C (second compound 1 µM, first compound 0.00316 µM): 31.7%; viability, T/C [5]: 15.7%; viability, T/C [6]: 6.26%; viability, T/C (second compound 3.16 µM, first compound 0.0001 µM): 30.8%; viability, T/C (second compound 3.16 µM, first compound 0.000316 µM): 22.8%; viability, T/C (second compound 3.16 µM, first compound 0.001 µM): 12.8%; viability, T/C (second compound 3.16 µM, first compound 0.00316 µM): 12%; viability, T/C [7]: 2.28%; viability, T/C [8]: 4.58%

Question: Which IC50 (second compound 0.1 µM) does the source give for `CC(=O)OC12COC1CC(O)C1(C)C(=O)C(O)C3=C(C)C(OC(=O)C(O)C(NC(=O)OC(C)(C)C)c4ccccc4)CC(O)(C(OC(=O)c4ccccc4)C21)C3(C)C` (stereo not given) + COc1cc2nc(C)nc(NC(C)c3cc(N)cc(C(F)(F)F)c3)c2cc1OC1CCOC1 here?
Answer: Its IC50 is greater than 3160 nM.

Question: And the IC50 (second compound 0.316 µM)?
Answer: The IC50 was less than 10 nM.

Question: What about the IC50 (second compound 1 µM) of the same molecule?
Answer: Its IC50 is greater than 3160 nM.

Question: And the IC50 (second compound 3.16 µM)?
Answer: The IC50 was less than 10 nM.

Question: What about the IC50 (second compound 10 µM) of the same molecule?
Answer: The IC50 was greater than 3160 nM.

Question: And the viability, T/C [1]?
Answer: The viability, T/C was 55.8%.

Question: What about the viability, T/C [2] of the same molecule?
Answer: The viability, T/C was 52.6%.

Question: And the viability, T/C (second compound 0.1 µM, first compound 0.1 µM)?
Answer: The viability, T/C was 53.9%.

Question: And the viability, T/C (second compound 0.1 µM, first compound 0.316 µM)?
Answer: The viability, T/C was 57.9%.

Question: What about the viability, T/C (second compound 0.1 µM, first compound 1 µM) of the same molecule?
Answer: The viability, T/C was 72.3%.

Question: And the viability, T/C (second compound 0.1 µM, first compound 3.16 µM)?
Answer: The viability, T/C was 58.7%.

Question: What about the viability, T/C [3] of the same molecule?
Answer: The viability, T/C was 48.6%.

Question: What about the viability, T/C [4] of the same molecule?
Answer: The viability, T/C was 40%.

Question: And the viability, T/C (second compound 0.316 µM, first compound 0.1 µM)?
Answer: The viability, T/C was 52.4%.

Question: What about the viability, T/C (second compound 0.316 µM, first compound 0.316 µM) of the same molecule?
Answer: Its viability, T/C is 45.4%.

Question: And the viability, T/C (second compound 0.316 µM, first compound 1 µM)?
Answer: The viability, T/C was 51%.

Question: And the viability, T/C (second compound 0.316 µM, first compound 3.16 µM)?
Answer: Its viability, T/C is 47.6%.

Question: And the viability, T/C [5]?
Answer: The viability, T/C was 54.9%.

Question: And the viability, T/C [6]?
Answer: The viability, T/C was 69.2%.

Question: And the viability, T/C (second compound 1 µM, first compound 0.1 µM)?
Answer: Its viability, T/C is 69.7%.

Question: What about the viability, T/C (second compound 1 µM, first compound 0.316 µM) of the same molecule?
Answer: The viability, T/C was 70.5%.

Question: What about the viability, T/C (second compound 1 µM, first compound 1 µM) of the same molecule?
Answer: The viability, T/C was 78.8%.

Question: What about the viability, T/C (second compound 1 µM, first compound 3.16 µM) of the same molecule?
Answer: The viability, T/C was 50.3%.

Question: What about the viability, T/C [7] of the same molecule?
Answer: The viability, T/C was 50.5%.

Question: What about the viability, T/C [8] of the same molecule?
Answer: The viability, T/C was 46.9%.

Question: What about the viability, T/C (second compound 3.16 µM, first compound 0.1 µM) of the same molecule?
Answer: The viability, T/C was 56.3%.

Question: And the viability, T/C (second compound 3.16 µM, first compound 0.316 µM)?
Answer: The viability, T/C was 48.9%.

Question: And the viability, T/C (second compound 3.16 µM, first compound 1 µM)?
Answer: The viability, T/C was 57.1%.

Question: What about the viability, T/C (second compound 3.16 µM, first compound 3.16 µM) of the same molecule?
Answer: The viability, T/C was 59.1%.

Question: And the viability, T/C (second compound 10 µM, first compound 0.01 µM)?
Answer: The viability, T/C was 62.7%.

Question: What about the viability, T/C (second compound 10 µM, first compound 0.0316 µM) of the same molecule?
Answer: The viability, T/C was 58.1%.

Question: What about the viability, T/C (second compound 10 µM, first compound 0.1 µM) of the same molecule?
Answer: The viability, T/C was 53.8%.

Question: What about the viability, T/C (second compound 10 µM, first compound 0.316 µM) of the same molecule?
Answer: The viability, T/C was 54.6%.

Question: And the viability, T/C (second compound 10 µM, first compound 1 µM)?
Answer: Its viability, T/C is 64.4%.

Question: What about the viability, T/C (second compound 10 µM, first compound 3.16 µM) of the same molecule?
Answer: Its viability, T/C is 62.2%.
